Key:
[1] = tested on: adult, male Sprague-Dawley rats; test: Modified Geller-Seifter conflict test, anxiolytic effect; type: in vivo, rat; details: for Statistically significant Active dose(s): oral, Geller-Seifter assay, ANOVA with Dunnett's test or t-test; for Geller-Seifter EDmin: rat conflict test, PO for Example 58
Experimental: (§1) Examples 1, 2 and 58 were evaluated in vivo for anxiolytic effects using (1) mouse marble burying (mMB) methods similar to those described in [K. Njung'e, K. and S. L. Handley, Pharmacology, Biochemistry and Behavior, 1991, 38, 63-67] and (2) a modified Geller-Seifter conflict test described in [N. A. Moore et al. Behavioural Pharmacology. 1994, 5, 196-202].
More specifically for the Geller-Seifter Conflict testing, rodent operant chambers (ENV-007CT, Med Associates Inc. (Georgia, Vt.)) and sound-attenuating chambers (ENV-018MD, Med Associates Inc.) were used. Each chamber was equipped with a house light, cue lights, grid floor to deliver foot shocks via a programmable shocker, (ENV-414, Med Associates, Inc.) and food hopper. Two levers were located on either side of the food hopper, Rats were trained to only respond on the left lever. Food reinforcement was used (Dustless Precision Pellets, 45 mg, BioServ, (Frenchtown, N.J.)). MED-PCIV software (Med Associates) was used to run experimental sessions and collect data.
Prior to beginning the Conflict procedure, animals were initially trained to lever press on fixed ratio schedules (FR 1, 2, 5, and 10). Once animals obtained 25 rewards on a FR 10 schedule for 2 consecutive days, animals began training on a three component Conflict schedule. […] These three components were repeated twice in the same order during the daily 30 minute session.
Animals were tested using a Latin-squares design, on Wednesdays and Fridays. Animals served as their own controls and received all treatments. To maintain baseline performance, animals were also trained the remaining three weekdays.
Testing was performed using 12 adult, male Sprague-Dawley rats, weighing 426-567 g (Charles River Laboratories (Kingston, N.Y.)). Animals were pair-housed in colony rooms maintained at controlled temperature (68-72° F.) and a 12-h light/dark cycle (lights on 06:00). Animals were given free access to water, while food was limited to 15 g of Bacon Lover's Treats (BioServ) after training/testing Monday through Thursday. Friday through Sunday, animals had free access to Lab Diet 5012 Rat Diet (PMI Nutrition International, LLC, Brentwood, Mo.) until cages were changed and food removed on Sunday.
Testing included multiple tests where each test was performed to evaluate either a reference compound or a compound of the present invention. Reference anxiolytics included chlordiazepoxide, diazepam and buspirone, which were dissolved in saline or water and administered via SC, IP, and/or PO, Test compounds were dissolved in 20% beta-cyclodextrin, and the pH was adjusted to 7 with NaHCO3. For each test, the compound to be evaluated was tested at one or more doses (such as 10, 20, 30 and/or 50 mg/kg) via p.o. administration 60 minutes before the test using an injection volume of 2 mL/kg in comparison with a vehicle control group. Doses were measured in mg drug (salt form) per kg body weight. Data was analyzed using Repeated Measures ANOVA with post-hoc Dunnett's test.

[2] = tested on: adult, male CD1 mice; test: Mouse marble burying (mMB) assay, anxiolytic effect; type: in vivo; details: for mMB EDmin: SC given for Example 58
Experimental: as §1
More specifically for the mMB testing, adult, male CD1 mice (Charles River Laboratories (Kingston, N.Y.)), weighing 25 to 30 g, were used. All animals were group-housed in a standard colony room with a 12:12 light/dark cycle (lights on at 6:00 am) for at least one week prior to testing. Food and water were provided ad libitum. Animals were weighed, tail marked, and randomly assigned to treatment groups before testing.
For each test, sixty minutes after the injection of vehicle or test compound, or 30 min after injection of the positive control, buspirone, mice were individually placed into test cages containing 1.5 in of Aspen bedding (PWI brand) and two rows of 10 marbles (20 marbles per test cage total). Filter tops were used to cover each test cage. Thirty minutes later, mice were removed from test cages and returned to their home cages. The number of fully visible marbles (less than ⅔ covered with bedding) were counted and subtracted from 20 to arrive at the number of marbles buried. Twelve mice were tested per group.
Testing included multiple tests with each test performed to evaluate buspirone hydrochloride (BUS; Sigma Aldrich) (positive control) and/or a compound of the present invention. Each compound was dissolved immediately prior to testing in 20% beta-cyclodextrin (compound of the present invention) or distilled water (BUS) and administered at one or more doses (such as 3, 10, and/or 30 mg/kg) via subcutaneous (SC) or intraperitoneal (IP) injection at the indicated pretreatment times (i.e., 30, 60, or 120 min pretreatment). Doses were measured in mg drug (salt form) per kg body weight. Data was analyzed using one-way ANOVA with post-hoc Dunnett's test.

[3] = molecular target: T1, rat metabotropic glutamate receptor 5 (mGluR5) (Rattus norvegicus, UniProt P31424); test: Calcium mobilization assay (FLIPR) for negative or positive allosteric activity, HEK 293 cells; type: cell-based; details: HEK293, negative allosteric modulation, inhibition of EC80 glutamate response; read-out: FLIPR maximum inhibition
T1 construct: expressed in transfected cells; host or cells: HEK 293
How it was run: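 Peak Fluo-4 calcium signal over 3 min at room temperature, minus basal, fitted by Hill equation, in stable rat mGluR5 HEK 293 cells (HBSS/HEPES pH 7.4, BSA, probenecid). Inhibition scored against EC80 glutamate, potentiation against EC20 glutamate, glutamate given with compound.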

[4] = molecular target: mGluR5 (Homo sapiens, UniProt P41594); test: Radioligand binding assay, [3H]MPEP filtration binding to membrane homogenates; details: 5 nM [3H]MPEP; Ki calculated from IC50 by Cheng-Prusoff
Experimental: Binding assays were performed as described in [J. A. O'Brien et al. Mol. Pharmacol., 2003, 64, 731-740] with slight modifications. Briefly, after thawing, the membrane homogenates were resuspended in 50 mM Tris-HCl, 0.9% NaCl binding buffer at pH 7.4 to a final assay concentration of 40 μg protein/well for [^3H]methoxy-5-(2-pyridinylethynyl)pyridine ([^3H] MPEP) (American Radiolabeled Chemicals, Inc., St. Louis, Mo.) filtration binding. Incubations included 5 nM [^3H] MPEP, membranes and either buffer or varying concentrations of compound. Samples were incubated for 60 min at room temperature with shaking. Non-specific binding was defined with 10 μM MPEP. After incubation, samples were filtered over a GF/C filter (presoaked in 0.25% polyethyleneimine (PEI)) and then washed 4 times using a Tomtec® Harvester 96® Mach III cell harvester (Tomtec, Hamden, Conn.) with 0.5 mL ice-cold 50 mM Tris-HCl (pH 7.4).
IC50 values were derived from the inhibition curve and Ki values were calculated according to the Cheng and Prusoff equation of Ki=IC50/(1+[L]/Kd) described in [Y. Cheng and W. H. Prusoff Biochem. Pharmacol. 1973, 22, 3099-3108] where [L] is the concentration of radioligand and Kd is its dissociation constant at the receptor, derived from the saturation isotherm.

Sequence of mGluR5 (P41594 21-1212): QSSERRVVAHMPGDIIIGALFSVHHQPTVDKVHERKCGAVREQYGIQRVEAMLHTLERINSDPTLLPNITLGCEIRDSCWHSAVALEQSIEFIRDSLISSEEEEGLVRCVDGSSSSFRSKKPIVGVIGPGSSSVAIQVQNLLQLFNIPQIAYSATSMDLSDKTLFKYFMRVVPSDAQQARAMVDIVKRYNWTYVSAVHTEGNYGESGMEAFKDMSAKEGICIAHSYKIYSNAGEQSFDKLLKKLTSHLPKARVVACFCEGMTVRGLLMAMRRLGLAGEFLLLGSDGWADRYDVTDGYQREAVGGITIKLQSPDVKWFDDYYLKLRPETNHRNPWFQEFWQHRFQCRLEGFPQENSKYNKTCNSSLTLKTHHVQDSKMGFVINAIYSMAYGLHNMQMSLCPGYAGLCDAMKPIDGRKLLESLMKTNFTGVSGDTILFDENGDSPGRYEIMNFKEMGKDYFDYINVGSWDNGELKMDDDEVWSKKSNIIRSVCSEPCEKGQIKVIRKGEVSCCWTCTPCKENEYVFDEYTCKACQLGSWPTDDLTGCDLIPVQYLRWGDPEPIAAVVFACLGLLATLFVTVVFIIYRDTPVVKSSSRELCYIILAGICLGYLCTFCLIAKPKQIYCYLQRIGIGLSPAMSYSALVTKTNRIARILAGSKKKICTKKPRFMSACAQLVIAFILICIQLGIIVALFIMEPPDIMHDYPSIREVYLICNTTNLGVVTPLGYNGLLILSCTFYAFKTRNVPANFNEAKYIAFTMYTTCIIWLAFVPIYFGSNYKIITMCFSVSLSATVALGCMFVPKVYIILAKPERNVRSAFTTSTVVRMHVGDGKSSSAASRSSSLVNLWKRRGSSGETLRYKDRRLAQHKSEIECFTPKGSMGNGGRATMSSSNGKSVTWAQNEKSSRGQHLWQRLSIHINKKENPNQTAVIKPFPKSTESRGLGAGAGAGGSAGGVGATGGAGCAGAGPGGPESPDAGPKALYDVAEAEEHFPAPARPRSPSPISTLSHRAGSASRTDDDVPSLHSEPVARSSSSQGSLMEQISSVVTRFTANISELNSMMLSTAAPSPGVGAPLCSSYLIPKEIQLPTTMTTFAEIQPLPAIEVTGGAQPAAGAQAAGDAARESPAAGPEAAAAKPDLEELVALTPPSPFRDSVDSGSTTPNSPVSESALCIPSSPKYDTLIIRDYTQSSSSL
T1 sequence (P31424 21-1171 isoform P31424-2 limits assumed): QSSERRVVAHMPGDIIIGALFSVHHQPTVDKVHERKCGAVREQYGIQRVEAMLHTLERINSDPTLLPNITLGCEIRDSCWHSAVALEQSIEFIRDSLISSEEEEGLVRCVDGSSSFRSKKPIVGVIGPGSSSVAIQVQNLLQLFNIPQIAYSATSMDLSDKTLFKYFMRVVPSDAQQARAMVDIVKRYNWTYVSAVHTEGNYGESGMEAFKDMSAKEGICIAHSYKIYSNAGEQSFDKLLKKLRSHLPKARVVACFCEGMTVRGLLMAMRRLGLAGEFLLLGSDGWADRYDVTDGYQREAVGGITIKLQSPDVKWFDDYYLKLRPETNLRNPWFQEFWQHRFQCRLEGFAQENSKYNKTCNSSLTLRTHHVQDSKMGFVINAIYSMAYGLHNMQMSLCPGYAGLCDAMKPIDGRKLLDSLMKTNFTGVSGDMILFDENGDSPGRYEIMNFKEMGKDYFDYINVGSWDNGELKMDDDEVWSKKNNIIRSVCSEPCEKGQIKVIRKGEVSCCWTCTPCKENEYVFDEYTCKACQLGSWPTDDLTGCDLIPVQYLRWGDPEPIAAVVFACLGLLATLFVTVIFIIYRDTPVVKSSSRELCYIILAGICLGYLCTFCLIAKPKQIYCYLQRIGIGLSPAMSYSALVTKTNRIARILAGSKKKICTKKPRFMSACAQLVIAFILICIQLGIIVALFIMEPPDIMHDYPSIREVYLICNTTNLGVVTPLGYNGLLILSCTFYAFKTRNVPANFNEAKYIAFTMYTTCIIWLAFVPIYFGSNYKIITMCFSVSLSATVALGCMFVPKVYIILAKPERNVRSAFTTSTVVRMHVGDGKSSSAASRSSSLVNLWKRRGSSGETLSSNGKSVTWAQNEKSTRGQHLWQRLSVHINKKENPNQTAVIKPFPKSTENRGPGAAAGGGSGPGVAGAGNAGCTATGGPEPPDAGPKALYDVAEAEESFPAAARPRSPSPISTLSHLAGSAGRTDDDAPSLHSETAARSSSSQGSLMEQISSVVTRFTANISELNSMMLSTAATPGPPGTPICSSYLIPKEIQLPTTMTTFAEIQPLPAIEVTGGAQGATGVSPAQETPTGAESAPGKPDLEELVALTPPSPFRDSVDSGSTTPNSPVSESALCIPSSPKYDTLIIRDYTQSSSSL

| SMILES | Emax [3] [%] | Ki [4] [nM] | Statistically significant Active dose(s) [1] [mg/kg] | Geller-Seifter EDmin [1] [mg/kg] | mMB EDmin [2] [mg/kg] | minimal effective dose ([2]; SC injection, one-way ANOVA with Dunnett's test or t-test, read-out: Statistically significant Active Dose) [mg/kg] |
| --- | --- | --- | --- | --- | --- | --- |
| Cc1cccc(C(=O)NC23CC4CC(C2)CC(NC(=O)c2cccc(C)n2)(C4)C3)n1 [Example 1, N,N′-(1,3-adamantylene)bis(6-methyl-pyridine-2-carboxamaide)] | 90 to 99 | 6.7 | 50 | 10 | 3 | – |
| Cc1cccc(C(=O)NC23CC4CC(CC(NC(=O)c5cnccn5)(C4)C2)C3)n1 [Example 41, Pyrazine-2-carboxylic acid {3-[(6-methyl-pyridine-2-carbonyl)-amino]-adamantan-1-yl}-amide] | 63 to 99 | – | 30 | – | – | – |
| Cc1cnc(C(=O)NC23CC4CC(CC(NC(=O)c5cccc(F)c5)(C4)C2)C3)cn1 [Example 94, 5-Methyl-pyrazine-2-carboxylic acid [3-(3-fluoro-benzoylamino)-adamantan-1-yl]-amide] | 63 to 99 | 6 to 700 | 20 | – | – | – |

Now from value to compound, other results behind:

| Emax [3] [%] | Ki [4] [nM] | SMILES | Statistically significant Active dose(s) [1] [mg/kg] | Geller-Seifter EDmin [1] [mg/kg] | mMB EDmin [2] [mg/kg] | minimal effective dose ([2]; SC injection, one-way ANOVA with Dunnett's test or t-test, read-out: Statistically significant Active Dose) [mg/kg] |
| --- | --- | --- | --- | --- | --- | --- |
| 90 to 99 | 40 | O=C(NC12CC3CC(C1)CC(NC(=O)c1ccccn1)(C3)C2)c1ccccn1 [Example 2, N,N′-(1,3-adamantylene)bis(2-pyridinecarboxamide)] | 20 | 20 | 30 | 30 |
| 63 to 99 | 6 to 700 | Cc1cncc(C(=O)NC23CC4CC(CC(NC(=O)c5ccccn5)(C4)C2)C3)n1 [Example 58, 6-Methyl-pyrazine-2-carboxylic acid {3-[(pyridine-2-carbonyl)-amino]-adamantan-1-yl}-amide] | – | 10 | 10 | – |
